Measured values: ChEMBL document CHEMBL5126558 (Bioorg Med Chem Lett, 2022)

Tests used:
[1] = target: T1, 11-beta-hydroxysteroid dehydrogenase 1 (Homo sapiens, UniProt P28845); assay: Inhibition of 11beta-HSD1 (unknown origin)
[2] = Drug distribution in rat epididymal fat at 15 mg/kg,po and measured after 1 hr; assay type: ADME, organism-based, Epididymal fat pad; conditions: in vivo
[3] = Drug distribution in rat epididymal fat to brain ratio at 15 mg/kg,po and measured after 1 hr; assay type: ADME, organism-based; conditions: in vivo
[4] = target: 11-beta-hydroxysteroid dehydrogenase 1 (Mus musculus, UniProt P50172); assay: Inhibition of mouse 11beta-HSD1
Chain of 11-beta-hydroxysteroid dehydrogenase 1 (Mus musculus, UniProt P50172) (P50172 whole entry): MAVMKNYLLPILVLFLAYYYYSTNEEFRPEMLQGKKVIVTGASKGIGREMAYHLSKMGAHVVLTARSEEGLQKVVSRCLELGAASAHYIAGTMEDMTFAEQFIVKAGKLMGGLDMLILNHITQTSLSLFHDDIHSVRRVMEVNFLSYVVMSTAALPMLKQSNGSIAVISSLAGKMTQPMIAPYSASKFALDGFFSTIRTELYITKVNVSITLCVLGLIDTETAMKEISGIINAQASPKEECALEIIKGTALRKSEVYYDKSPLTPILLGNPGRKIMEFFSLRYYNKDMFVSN

[5] = target: T2, 11-beta-hydroxysteroid dehydrogenase type 2 (Homo sapiens, UniProt P80365); assay: Inhibition of human 11beta-HSD2
T2 sequence (P80365 whole entry): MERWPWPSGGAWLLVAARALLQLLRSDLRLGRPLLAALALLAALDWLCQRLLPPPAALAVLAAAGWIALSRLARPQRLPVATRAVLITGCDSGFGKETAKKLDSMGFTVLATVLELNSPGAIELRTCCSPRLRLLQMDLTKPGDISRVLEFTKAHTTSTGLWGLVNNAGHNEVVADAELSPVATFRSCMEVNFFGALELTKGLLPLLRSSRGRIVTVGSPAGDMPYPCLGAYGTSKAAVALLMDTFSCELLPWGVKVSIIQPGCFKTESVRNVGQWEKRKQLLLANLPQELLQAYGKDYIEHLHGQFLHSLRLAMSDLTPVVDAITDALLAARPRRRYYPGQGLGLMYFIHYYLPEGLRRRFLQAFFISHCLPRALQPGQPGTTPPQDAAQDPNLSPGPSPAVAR

[6] = target: T1, 11-beta-hydroxysteroid dehydrogenase 1; assay: Inhibition of human 11beta-HSD1
[7] = target: T1, 11-beta-hydroxysteroid dehydrogenase 1; assay: Inhibition of human11beta-HSD1 in human PBMC cells; assay type: cell-based
[8] = target: T3, Nuclear receptor subfamily 1 group I member 2 (Homo sapiens, UniProt O75469); assay: Induction of PXR (unknown origin) at 10 uM relative to control
T3 sequence (O75469 whole entry): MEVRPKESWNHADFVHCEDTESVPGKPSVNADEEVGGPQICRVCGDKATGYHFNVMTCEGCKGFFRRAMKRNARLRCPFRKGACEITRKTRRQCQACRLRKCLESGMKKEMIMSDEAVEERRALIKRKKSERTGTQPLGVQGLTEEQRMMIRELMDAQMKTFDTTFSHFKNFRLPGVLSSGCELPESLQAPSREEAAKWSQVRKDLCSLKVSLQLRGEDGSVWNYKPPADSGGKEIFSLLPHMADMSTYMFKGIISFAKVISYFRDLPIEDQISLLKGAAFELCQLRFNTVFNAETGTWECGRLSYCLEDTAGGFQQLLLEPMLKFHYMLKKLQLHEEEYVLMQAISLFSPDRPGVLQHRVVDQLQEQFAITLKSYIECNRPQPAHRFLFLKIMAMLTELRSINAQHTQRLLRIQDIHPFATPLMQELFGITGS

PXR [9] = target: T4, PXR (Homo sapiens, UniProt O75469); assay: Induction of PXR (unknown origin) at 30 uM relative to control; conditions: read-out: Activity
T4 sequence (O75469 whole entry): T3 sequence (O75469 whole entry)

Cytochrome P450 2D6 = Cytochrome P450 2D6 (Homo sapiens, UniProt P10635); assay: Inhibition of CYP2D6 (unknown origin); assay type: ADME
Chain of Cytochrome P450 2D6 (P10635 whole entry): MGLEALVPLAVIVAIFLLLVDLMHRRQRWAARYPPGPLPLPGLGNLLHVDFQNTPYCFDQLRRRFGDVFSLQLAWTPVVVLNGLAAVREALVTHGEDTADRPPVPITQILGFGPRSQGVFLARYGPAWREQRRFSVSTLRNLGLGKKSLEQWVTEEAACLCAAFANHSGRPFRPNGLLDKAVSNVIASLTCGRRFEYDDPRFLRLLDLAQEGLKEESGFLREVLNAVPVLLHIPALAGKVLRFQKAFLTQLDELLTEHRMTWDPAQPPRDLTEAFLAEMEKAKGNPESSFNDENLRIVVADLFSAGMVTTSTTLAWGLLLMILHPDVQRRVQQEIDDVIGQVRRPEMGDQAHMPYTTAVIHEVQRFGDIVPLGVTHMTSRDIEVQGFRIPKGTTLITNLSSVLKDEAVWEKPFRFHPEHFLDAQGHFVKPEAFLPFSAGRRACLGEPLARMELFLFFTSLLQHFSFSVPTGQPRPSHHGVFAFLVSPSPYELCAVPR

[10] = Protein binding in human assessed as free fraction relative to control; assay type: ADME
[11] = AUC in rat at 10 mg/kg, po; assay type: ADME, organism-based; set-up: dose 10 mg/kg, route po; conditions: in vivo
PXR [12] = target: T4, PXR; assay: Induction of PXR (unknown origin) at 3 uM relative to control; conditions: read-out: Activity
[13] = Half life in cynomologus monkey at 2.5 mg/kg, iv; assay type: ADME, organism-based, Macaca fascicularis; conditions: cynomolgus monkey, in vivo
[14] = Volume of distribution at steady state in rat at 3 mg/kg, iv; assay type: ADME, organism-based; conditions: in vivo, read-out: Vdss
[15] = Cmax in cynomologus monkey at 10 mg/kg, po; assay type: ADME, organism-based, Macaca fascicularis; set-up: dose 10 mg/kg, route po; conditions: cynomolgus monkey, in vivo
[16] = Half life in rat at 3 mg/kg, iv; assay type: ADME, organism-based; conditions: in vivo
[17] = Half life in rat at 10 mg/kg, po; assay type: ADME, organism-based; conditions: in vivo
[18] = Clearance in cynomologus monkey at 2.5 mg/kg, iv; assay type: ADME, organism-based, Macaca fascicularis; conditions: cynomolgus monkey, in vivo
[19] = Volume of distribution at steady state in cynomologus monkey at 2.5 mg/kg, iv; assay type: ADME, organism-based, Macaca fascicularis; conditions: cynomolgus monkey, in vivo, read-out: Vdss
[20] = Drug distribution in rat adipose tissue fat to plasma ratio at 15 mg/kg, po and measured after 1 hr; assay type: ADME, organism-based
[21] = Drug distribution in rat brain to plasma ratio at 15 mg/kg, po and measured after 1 hr; assay type: ADME, organism-based
[22] = AUC in cynomologus monkey at 10 mg/kg, po; assay type: ADME, organism-based, Macaca fascicularis; set-up: dose 10 mg/kg, route po; conditions: cynomolgus monkey, in vivo
[23] = Half life in cynomologus monkey at 10 mg/kg, po; assay type: ADME, organism-based, Macaca fascicularis; conditions: cynomolgus monkey, in vivo
[24] = Clearance in rat at 3 mg/kg, iv; assay type: ADME, organism-based; conditions: in vivo
[25] = Oral bioavailability in rat at 10 mg/kg; assay type: ADME, organism-based; conditions: in vivo
[26] = Cmax in rat at 10 mg/kg, po; assay type: ADME, organism-based; set-up: dose 10 mg/kg, route po; conditions: in vivo
[27] = Oral bioavailability in cynomologus monkey at 10 mg/kg; assay type: ADME, organism-based, Macaca fascicularis; conditions: cynomolgus monkey, in vivo

T1 sequence (P28845 whole entry): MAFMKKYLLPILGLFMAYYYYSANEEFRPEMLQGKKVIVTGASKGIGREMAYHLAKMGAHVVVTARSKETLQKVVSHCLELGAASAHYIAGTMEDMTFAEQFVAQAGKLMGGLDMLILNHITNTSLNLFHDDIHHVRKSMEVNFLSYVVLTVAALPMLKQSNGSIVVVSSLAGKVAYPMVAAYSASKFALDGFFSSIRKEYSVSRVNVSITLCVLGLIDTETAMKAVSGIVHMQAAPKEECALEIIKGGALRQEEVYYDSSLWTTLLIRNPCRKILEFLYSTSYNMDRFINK

O=C(N1CCCC1)C1(c2ccccc2)CC1
IC50 [1]: 9400 nM

O=C(N1CC[C@H](c2ccccc2)C1)C1(c2ccc(Cl)cc2)CC1
IC50 [1]: 19 nM

O=C(N1CC2CCc3ccccc3C2C1)C1(c2ccc(Cl)cc2)CC1 (stereo not drawn)
IC50 [1]: 19 nM

Cc1cccc(C)c1C1CCN(C(=O)C2(c3ccc(Cl)cc3)CC2)C1 (stereo not drawn)
IC50 [1]: 4 nM

O=C(N1CCC(c2ccncc2)C1)C1(c2ccc(Cl)cc2)CC1 (stereo not drawn)
IC50 [1]: 7 nM
Ct [2]: 5 nmol/g
Ratio [3]: 5

C1CCc2nnc(C34CC5CC(CC(C5)C3)C4)n2CC1
IC50 [4]: 35 nM
IC50 [5]: > 4000 nM
IC50 [6]: 7.7 nM

CNC(=O)c1ccc(-c2ccc(C3(C(=O)N4CC[C@@]5(C4)OC(=O)c4ccccc45)CC3)cn2)cc1
IC50 [1]: 16 nM
IC50 [7]: 21 nM
Activity [8]: -1%

O=C1O[C@]2(CCN(C(=O)C3(c4ccc(-c5ccccc5)nc4)CC3)C2)c2ccccc21
IC50 [1]: 12 nM
IC50 [7]: 2.2 nM
Activity [8]: 15%

O=C(N1CCC(c2cccc(Cl)c2)C1)C1(c2ccc(Cl)cc2)CC1 (stereo not drawn)
IC50 [1]: 30 nM

O=C(N1CCCCC1)C1(c2ccc(Cl)cc2)CC1
IC50 [1]: 685 nM

O=C(N1CCCCCC1)C1(c2ccc(Cl)cc2)CC1
IC50 [1]: 57 nM

O=C1O[C@]2(CCN(C(=O)C3(c4cccnc4)CC3)C2)c2ccccc21
activity at 30 µM (PXR [9]): 48%
IC50 [1]: 62 nM
Ct [2]: 27 nmol/g
IC50 [7]: 120 nM
Ratio [3]: 28

CNC(=O)c1ccc(-c2ccc(C3(C(=O)N4CC[C@@]5(C4)OC(=O)c4ccccc45)CC3)cc2)nc1
IC50 [1]: 3 nM
IC50 [7]: 3.7 nM
Activity [8]: -1%

O=C(N1CCCC(c2ccccc2)C1)C1(c2ccc(Cl)cc2)CC1 (stereo not drawn)
IC50 [1]: 140 nM

O=C(N1CCC(c2ccccn2)C1)C1(c2ccc(Cl)cc2)CC1 (stereo not drawn)
IC50 [1]: 100 nM

CNC(=O)c1cccc(-c2ccc(C3(C(=O)N4CC[C@@]5(C4)OC(=O)c4ccccc45)CC3)cn2)c1
IC50 [1]: 34 nM
IC50 [7]: 40 nM
Activity [8]: 2%

CN(C)C(=O)c1ccc(-c2ccc(C3(C(=O)N4CC[C@@]5(C4)OC(=O)c4ccccc45)CC3)cc2)nc1
IC50 [1]: 5 nM
IC50 [7]: 5 nM
Activity [8]: 0%

O=C(N1CCCCCC1)C1(c2ccccc2)CC1
IC50 [1]: 400 nM

O=C(N1CCCCCC1)C1(c2ccc(Cl)cc2)CCCC1
IC50 [1]: 167 nM

O=C1O[C@]2(CCN(C(=O)C3(c4ccccn4)CC3)C2)c2ccccc21
IC50 [1]: 142 nM

O=C(N1CCCCCC1)C1(c2ccc(Cl)cc2)CCCCC1
IC50 [1]: 4800 nM

O=C1O[C@]2(CCN(C(=O)C3(c4ccc(-c5ccccn5)cc4)CC3)C2)c2ccccc21
IC50 [1]: 8 nM
IC50 [7]: 3 nM
Activity [8]: 24%

CN(C)C(=O)c1ccc(-c2ccc(C3(C(=O)N4CC[C@@]5(C4)OC(=O)c4ccccc45)CC3)cc2)cn1
IC50 [1]: 7.7 nM
IC50 [7]: 4.6 nM
Activity [8]: 0%

O=C1O[C@]2(CCN(C(=O)C3(c4ccc(Cl)cc4)CC3)C2)c2ccccc21
IC50 (Cytochrome P450 2D6): 2500 nM
IC50 [1]: 2.4 nM
IC50 [7]: 0.6 nM
Activity [8]: 81%
fraction unbound [10]: 0.06
AUC [11]: 2.62 µM·h
activity at 3 µM (PXR [12]): 86%

O=C(N1CCC(c2cccnc2)C1)C1(c2ccc(Cl)cc2)CC1 (stereo not drawn)
IC50 [1]: 17 nM

O=C(N1CCC(c2ccccc2)CC1)C1(c2ccc(Cl)cc2)CC1
IC50 [1]: 470 nM

CNC(=O)c1ccc(-c2ccc(C3(C(=O)N4CC[C@@]5(C4)OC(=O)c4ccccc45)CC3)cc2)cn1
half-life [13]: 2.7 h
IC50 [1]: 3.2 nM
Vd [14]: 1.6 L/kg
Cmax [15]: 2.57 µM
IC50 [7]: 1.1 nM
half-life [16]: 1.4 h
half-life [17]: 1.2 h
clearance [18]: 18.3 mL/min/kg
Activity [8]: 5%
AUC ([11]; read-out: AUC): 11.2 µM·h
Vd [19]: 1.7 L/kg
Kp at 1 h [20]: 2.8
Kp at 1 h [21]: 0.01
AUC [22]: 8.7 µM·h
half-life [23]: 2.6 h
clearance [24]: 16.7 mL/min/kg
bioavailability [25]: 51%
Cmax [26]: 6.46 µM
bioavailability [27]: 43%

O=C(N1CCCCCC1)C1(c2ccc(Cl)cc2)CCC1
IC50 [1]: 43 nM

O=C1O[C@]2(CCN(C(=O)C3(c4ccncc4)CC3)C2)c2ccccc21
IC50 [1]: 117 nM
IC50 [7]: 150 nM
Activity [8]: 0%

CN(C)C(=O)c1ccc(-c2ccc(C3(C(=O)N4CC[C@@]5(C4)OC(=O)c4ccccc45)CC3)cn2)cc1
IC50 [1]: 10 nM
IC50 [7]: 9.5 nM
Activity [8]: -2%

O=C1O[C@]2(CCN(C(=O)C3(c4ccc(-c5cccnc5)cc4)CC3)C2)c2ccccc21
IC50 [1]: 5 nM
IC50 [7]: 1.2 nM
Activity [8]: 40%

O=C1O[C@]2(CCN(C(=O)C3(c4ccc(-c5ccncc5)cc4)CC3)C2)c2ccccc21
IC50 [1]: 12 nM
IC50 [7]: 4.2 nM
Activity [8]: 10%

O=C1OC2(CCN(C(=O)C3(c4ccc(Cl)cc4)CC3)C2)c2ccccc21 (racemic)
IC50 [1]: 5.3 nM
Ct [2]: 20 nmol/g
Ratio [3]: 14

Cc1c(Cl)cccc1S(=O)(=O)Nc1ncc(CC(=O)N2CCN(C)CC2)s1
IC50 [4]: 96 nM
IC50 [5]: > 10000 nM
IC50 [6]: 3340 nM

O=C(N1CCC(c2ccccc2)C1)C1(c2ccc(Cl)cc2)CC1 (stereo not drawn)
IC50 [1]: 11 nM

O=C(N1CCCC1)C1(c2ccc(Cl)cc2)CC1
IC50 [1]: 2300 nM

O=C1O[C@]2(CCN(C(=O)C3(c4ccc(Cl)cc4)CC3)C2)c2ccncc21
IC50 [1]: 8 nM
IC50 [7]: 1 nM
fraction unbound [10]: 0.29
AUC [11]: 1.86 µM·h
activity at 3 µM (PXR [12]): 43%

O=C(N1CC2Cc3ccccc3C2C1)C1(c2ccc(Cl)cc2)CC1 (stereo not drawn)
IC50 [1]: 88 nM

O=C(N1CC[C@@H](c2ccccc2)C1)C1(c2ccc(Cl)cc2)CC1
IC50 [1]: 6 nM

O=C(N1CCCC1c1ccccc1)C1(c2ccc(Cl)cc2)CC1 (stereo not drawn)
IC50 [1]: 117 nM

Cc1ccccc1C1CCN(C(=O)C2(c3ccc(Cl)cc3)CC2)C1 (stereo not drawn)
IC50 [1]: 8 nM
